# Experimental data published in patent US6733777B2, “Cationic reagents of transfection” (Qiagen GmbH, priority 1996, dated 2004).
# Like-named read-outs stand apart in the source and are kept apart here. Marks after values point to notes of the source that are not given here.
# Tests used:
# COS7 cells = experiment: Transfection of COS7 cells with pCMVβ, β-Gal activity assay (cytofectins having three ammonium groups); type: cell-based; conditions: liposome with DOPE, 0.5 μg pCMVβ
# Method: (§1) N,N′,N″-trialkyl-N,N,N′,N″,N″-pentamethyl-bis-(2-ammonioethyl)ammoniumbromide Liposomes comprising compound (3) [synthesis according to Example 1B] and DOPE were prepared at 60° C., using DOPE without sonication.
# (§2) Cells were incubated for 48 hours at 37° C., 5% CO2 and then lysed.
# (§3) The results below (Table 7) indicate the optimal transfection efficiency of the reporter plasmid pCMVβ using the above-mentioned liposomes as a percentage of the highest transfection efficiency obtained by Lipofectamine. R indicates the number of carbons in the alkyl chain. Concentration of DOPE in each liposome may be calculated by multiply the X(DOPE) value by […].
# HeLaS3 cells [1] = experiment: Transfection of HeLaS3 cells with pCMVβ, β-Gal activity assay (cytofectins having three ammonium groups); type: cell-based; conditions: liposome with DOPE, 0.5 μg pCMVβ
# Method: as §1, §2, §3
# HeLaS3 cells [2] = experiment: Transfection of HeLaS3 cells with pCMVβ, β-Gal activity assay (variation of counter ion); type: cell-based; conditions: 10-2-10 cytofectin with the given counter ion; for Results (%) (optimal transfection efficiency as percentage of the highest efficiency obtained by Lipofectamine): liposome with DOPE, 0.5 μg pCMVβ; for ranking of transfection efficiency among the counter ions (in words) / transfection efficiency compared with Lipofectamine (in words): liposomes with DOPE
# Method: Liposomes were used to transfect HeLaS3 cells in vitro with the reporter plasmid pCMVβ (Clontech). […] Cells were incubated for 48 hours at 37° C., 5% CO2 and then lysed.
# In similar studies in HeLaS3 cells, the same vector was transfected with liposomes comprising bromide counter ions and the cytofectin, 10-2-10 Ethandiyl-1,2-bis(decyl dimethylammonium).
# Huh7 cells = conditions: Huh7, liposome with DOPE, 0.5 μg pCMVβ
# Method: The resulting liposomes were used to transfect Huh7 cells in vitro with the reporter plasmid pCMVβ (Clontech). Transfection efficiencies, as obtained by OD measurements after cell-lysis and β-Gal activity assay, were compared to efficiencies obtained in parallel with a commercially available liposome-preparation (Lipofectamine, Gibco LTI) and given as percentage of Lipofectamine efficiency. For each transfection, 0.5 μg of pCMVβ (isolated with EndoFree, QIAGEN) was used per well of a 96 well plate. The DNA was diluted to 50 μl with DMEM medium (Gibco LTI) and combined with 1, 2, 3 and 4 μl of the liposome preparations subsequently diluted to 50 μl with DMEM medium. DNA and liposome solutions were mixed and applied to the cells for 6 hours at 37° C., 5% CO2. Afterwards, medium was changed to DMEM containing 10% fetal calf serum. Cells were lysed after 48 h incubation at 37° C., 5% CO2. Twofold determinations each were performed. The values were averaged and the highest efficiency (optimum) within a row was given as percentage value of the highest efficiency (optimum) obtained with Lipofectamine.
# [3] = X(DOPE) 0.5, without sonication
# [4] = X(DOPE) 0.6, without sonication
# [5] = X(DOPE) 0.7, without sonication
# [6] = X(DOPE) 0.8, without sonication
# [7] = X(DOPE) 0.50, without sonication
# [8] = X(DOPE) 0.60, without sonication
# [9] = X(DOPE) 0.70, without sonication
# [10] = X(DOPE) 0.80, without sonication
Compound,Results COS7 (%) (optimal transfection efficiency as percentage of the highest efficiency obtained by Lipofectamine) (COS7 cells; [3]),Results COS7 (%) (optimal transfection efficiency as percentage of the highest efficiency obtained by Lipofectamine) (COS7 cells; [4]),Results COS7 (%) (optimal transfection efficiency as percentage of the highest efficiency obtained by Lipofectamine) (COS7 cells; [5]),Results COS7 (%) (optimal transfection efficiency as percentage of the highest efficiency obtained by Lipofectamine) (COS7 cells; [6]),Results HeLaS3 (%) (optimal transfection efficiency as percentage of the highest efficiency obtained by Lipofectamine) (HeLaS3 cells [1]; [3]),Results HeLaS3 (%) (optimal transfection efficiency as percentage of the highest efficiency obtained by Lipofectamine) (HeLaS3 cells [1]; [4]),Results HeLaS3 (%) (optimal transfection efficiency as percentage of the highest efficiency obtained by Lipofectamine) (HeLaS3 cells [1]; [5]),Results HeLaS3 (%) (optimal transfection efficiency as percentage of the highest efficiency obtained by Lipofectamine) (HeLaS3 cells [1]; [6]),Results (%) (optimal transfection efficiency as percentage of the highest efficiency obtained by Lipofectamine) (HeLaS3 cells [2]; [7]),Results (%) (optimal transfection efficiency as percentage of the highest efficiency obtained by Lipofectamine) (HeLaS3 cells [2]; [8]),Results (%) (optimal transfection efficiency as percentage of the highest efficiency obtained by Lipofectamine) (HeLaS3 cells [2]; [9]),Results (%) (optimal transfection efficiency as percentage of the highest efficiency obtained by Lipofectamine) (HeLaS3 cells [2]; [10]),also measured
"CCCCCCCCCC[N+](C)(C)CC[N+](C)(CCCCCCCCCC)CC[N+](C)(C)CCCCCCCCCC.[Br-].[Br-].[Br-] [R = 10, N,N′,N″-tridecyl-N,N,N′,N″,N″-pentamethyl-bis-(2-ammonioethyl)-ammoniumbromide]",11%,9%,16%,20%,231%,222%,52%,47%,–,–,–,–,–
"CCCCCCCCCCCC[N+](C)(C)CC[N+](C)(CCCCCCCCCCCC)CC[N+](C)(C)CCCCCCCCCCCC.[Br-].[Br-].[Br-] [R = 12, N,N′,N″-tridodecyl-N,N,N′,N″,N″-pentamethyl-bis-(2-ammonioethyl)-ammoniumbromide]",3%,5%,8%,29%,0%,9%,17%,63%,–,–,–,–,–
"CCCCCCCCCCCCCC[N+](C)(C)CC[N+](C)(CCCCCCCCCCCCCC)CC[N+](C)(C)CCCCCCCCCCCCCC.[Br-].[Br-].[Br-] [R = 14, N,N′,N″-tritetradecyl-N,N,N′,N″,N″-pentamethyl-bis-(2-ammonioethyl) ammoniumbromide]",8%,9%,12%,58%,7%,7%,9%,35%,–,–,–,–,–
"CCCCCCCCCCCCCCCC[N+](C)(C)CC[N+](C)(CCCCCCCCCCCCCCCC)CC[N+](C)(C)CCCCCCCCCCCCCCCC.[Br-].[Br-].[Br-] [R = 16, N,N′,N″-trihexadecyl-N,N,N′,N″,N″-pentamethyl-bis-(2-ammonioethyl)-ammoniumbromide]",18%,16%,44%,38%,31%,39%,70%,75%,–,–,–,–,–
"CCCCCCCCCCCCCCCCCC[N+](C)(C)CC[N+](C)(CCCCCCCCCCCCCCCCCC)CC[N+](C)(C)CCCCCCCCCCCCCCCCCC.[Br-].[Br-].[Br-] [R = 18, N,N′,N″-trioctadcyl-N,N,N′,N″,N″-pentamethyl-bis-(2-ammonioethyl)-ammoniumbromide]",20%,34%,79%,93%,65%,61%,80%,61%,–,–,–,–,–
"CCCCCCCCCC[N+](C)(C)CC[N+](C)(C)CCCCCCCCCC.O=P([O-])(O)O.O=P([O-])(O)O [dihydrogenphosphate, Ethanediyl-1,2-bis(decyldimethylammonium) dihydrogenphosphate]",–,–,–,–,–,–,–,–,1966%,> 3230* %,580%,615%,ranking of transfection efficiency among the counter ions (in words) (HeLaS3 cells [2]): highest transfection efficiencies; transfection efficiency compared with Lipofectamine (in words) (HeLaS3 cells [2]): higher transfection efficiency values than transfections with Lipofectamine
"CCCCCCCCCC[N+](C)(C)CC[N+](C)(C)CCCCCCCCCC.O=C([O-])C(=O)[O-] [oxalate, Ethanediyl-1,2-bis(decyldimethylammonium) oxalate]",–,–,–,–,–,–,–,–,275%,0%,0%,0%,–
"CCCCCCCCCC[N+](C)(C)CC[N+](C)(C)CCCCCCCCCC.O=S(=O)([O-])[O-] [sulfate, ethanediyl-1,2-bis(dimethyldecylammonium sulfate)]",–,–,–,–,–,–,–,–,879%,927%,265%,1201%,transfection efficiency compared with Lipofectamine (in words) (HeLaS3 cells [2]): higher transfection efficiency values than transfections with Lipofectamine
"Ethanediyl-1,2-bis(decyl dimethylammonium) iodide",–,–,–,–,–,–,–,–,> 3230* %,> 3230* %,686%,457%,ranking of transfection efficiency among the counter ions (in words) (HeLaS3 cells [2]): highest transfection efficiencies; transfection efficiency compared with Lipofectamine (in words) (HeLaS3 cells [2]): higher transfection efficiency values than transfections with Lipofectamine
"Ethanediyl-1,2-bis(decyl dimethylammonium) thiosulfate",–,–,–,–,–,–,–,–,1552%,1915%,605%,844%,transfection efficiency compared with Lipofectamine (in words) (HeLaS3 cells [2]): higher transfection efficiency values than transfections with Lipofectamine
"Ethanediyl-1,2-bis(dodecyl dimethylammonium bromide) [12-2-12]",–,–,–,–,–,–,–,–,–,–,–,–,Result (%) (transfection efficiency as percentage of Lipofectamine efficiency) (Huh7 cells; [7]): 70%; Result (%) (transfection efficiency as percentage of Lipofectamine efficiency) (Huh7 cells; [8]): 127%; Result (%) (transfection efficiency as percentage of Lipofectamine efficiency) (Huh7 cells; [9]): 138%; Result (%) (transfection efficiency as percentage of Lipofectamine efficiency) (Huh7 cells; [10]): 89%
"Ethanediyl-1,2-bis(hexadecyl dimethylammonium bromide) [16-2-16]",–,–,–,–,–,–,–,–,–,–,–,–,Result (%) (transfection efficiency as percentage of Lipofectamine efficiency) (Huh7 cells; [7]): 104%; Result (%) (transfection efficiency as percentage of Lipofectamine efficiency) (Huh7 cells; [8]): 124%; Result (%) (transfection efficiency as percentage of Lipofectamine efficiency) (Huh7 cells; [9]): 126%; Result (%) (transfection efficiency as percentage of Lipofectamine efficiency) (Huh7 cells; [10]): 169%
"Ethanediyl-1,2-bis(octadecyl dimethylammonium bromide) [18-2-18]",–,–,–,–,–,–,–,–,–,–,–,–,Result (%) (transfection efficiency as percentage of Lipofectamine efficiency) (Huh7 cells; [7]): 82%; Result (%) (transfection efficiency as percentage of Lipofectamine efficiency) (Huh7 cells; [8]): 68%; Result (%) (transfection efficiency as percentage of Lipofectamine efficiency) (Huh7 cells; [9]): 105%; Result (%) (transfection efficiency as percentage of Lipofectamine efficiency) (Huh7 cells; [10]): 115%
"Ethanediyl-1,2-bis(tetradecyl dimethylammonium bromide) [14-2-14]",–,–,–,–,–,–,–,–,–,–,–,–,Result (%) (transfection efficiency as percentage of Lipofectamine efficiency) (Huh7 cells; [7]): 48%; Result (%) (transfection efficiency as percentage of Lipofectamine efficiency) (Huh7 cells; [8]): 74%; Result (%) (transfection efficiency as percentage of Lipofectamine efficiency) (Huh7 cells; [9]): 98%; Result (%) (transfection efficiency as percentage of Lipofectamine efficiency) (Huh7 cells; [10]): 157%
